Data taken from article PMC7587962, “Evaluation of Cytotoxicity and α-Glucosidase Inhibitory Activity of Amide and Polyamino-Derivatives of Lupane Triterpenoids” (Molecules, 2020).
Where two headings read alike, the source gives them in different places.

Columns and labels:
Melanoma subpanel = experiment: NCI-60 screen, subpanel Melanoma
ACHN = experiment: NCI-60 SRB screen: renal cancer ACHN; format: cell-based, human
SK-OV-3 = experiment: NCI-60 SRB screen: ovarian cancer SK-OV-3; format: cell-based, human
[1] = system: 60 human tumor cell lines; experiment: cells
Ovarian Cancer subpanel = experiment: NCI-60 screen, subpanel Ovarian Cancer
K-562 = experiment: NCI-60 SRB screen: leukemia K-562; format: cell-based, human
MDA-MB-435 = experiment: NCI-60 SRB screen: melanoma MDA-MB-435; format: cell-based, human
BT-549 = experiment: NCI-60 SRB screen: breast cancer BT-549; format: cell-based, human
LOX IMVI = experiment: NCI-60 SRB screen: melanoma LOX IMVI; format: cell-based, human
MDA-MB-468 = experiment: NCI-60 SRB screen: breast cancer MDA-MB-468; format: cell-based, human; details: for GI50: five concentrations, 48 h, SRB
SNB-75 = experiment: NCI-60 SRB screen: CNS cancer SNB-75; format: cell-based, human
M14 = experiment: NCI-60 SRB screen: melanoma M14; format: cell-based, human
MOLT-4 = experiment: NCI-60 SRB screen: leukemia MOLT-4; format: cell-based; details: Homo sapiens, MOLT-4, 48 h
UACC-62 = experiment: NCI-60 SRB screen: melanoma UACC-62; format: cell-based, human
NCI-H522 = experiment: NCI-60 SRB screen: non-small cell lung cancer NCI-H522; format: cell-based, human
OVCAR-4 = experiment: NCI-60 SRB screen: ovarian cancer OVCAR-4; format: cell-based; details: Homo sapiens, OVCAR-4, 48 h
NCI-H23 = experiment: NCI-60 SRB screen: non-small cell lung cancer NCI-H23; format: cell-based, human
CAKI-1 = experiment: NCI-60 SRB screen: renal cancer CAKI-1; format: cell-based, human
SN12C = experiment: NCI-60 SRB screen: renal cancer SN12C; format: cell-based, human
NCI-H460 = experiment: NCI-60 SRB screen: non-small cell lung cancer NCI-H460; format: cell-based; details: Homo sapiens, NCI-H460, 48 h
OVCAR-3 = experiment: NCI-60 SRB screen: ovarian cancer OVCAR-3; format: cell-based, human
T-47D = experiment: NCI-60 SRB screen: breast cancer T-47D; format: cell-based, human
SF-539 = experiment: NCI-60 SRB screen: CNS cancer SF-539; format: cell-based, human
MCF7 = experiment: NCI-60 SRB screen: breast cancer MCF7; format: cell-based; details: Homo sapiens, MCF7, 48 h
RPMI-8226 = experiment: NCI-60 SRB screen: leukemia RPMI-8226; format: cell-based; details: Homo sapiens, RPMI-8226, 48 h
OVCAR-5 = experiment: NCI-60 SRB screen: ovarian cancer OVCAR-5; format: cell-based, human
A549/ATCC = experiment: NCI-60 SRB screen: non-small cell lung cancer A549/ATCC; format: cell-based, human
SF-268 = experiment: NCI-60 SRB screen: CNS cancer SF-268; format: cell-based, human
786-0 = experiment: NCI-60 SRB screen: renal cancer 786-0; format: cell-based, human
PC-3 = experiment: NCI-60 SRB screen: prostate cancer PC-3; format: cell-based, human
OVCAR-8 = experiment: NCI-60 SRB screen: ovarian cancer OVCAR-8; format: cell-based, human
HS 578T = experiment: NCI-60 SRB screen: breast cancer HS 578T; format: cell-based, human
HL-60(TB) = experiment: NCI-60 SRB screen: leukemia HL-60(TB); format: cell-based; details: Homo sapiens, HL-60, 48 h
SK-MEL-28 = experiment: NCI-60 SRB screen: melanoma SK-MEL-28; format: cell-based, human
[2] = read-out: Percentage Cell Growth

## C=C(C)[C@@H]1CC[C@]2(C(N)=O)CC[C@]3(C)[C@H](CC[C@@H]4[C@@]5(C)CC[C@H](O)C(C)(C)[C@@H]5CC[C@]43C)[C@@H]12 [Compound 5]
Melanoma subpanel
  MID b, average sensitivity of all cell line of particular subpanel: 5.58 µM
  Selectivity, ratio MID a: MID b: 0.66
ACHN; Homo sapiens, 48 h
  GI50: 2.44 µM
ACHN; single dose 10 µM
  Percentage Cell Growth: −80.29%
SK-OV-3; Homo sapiens, SK-OV-3, 48 h
  GI50: 8.18 µM
SK-OV-3; SK-OV-3, single dose 10 µM
  Percentage Cell Growth: −45.72%
[1]; read-out: GI50 ranges against all panels of NCI60
  GI50: 1.09 to 13.2 µM
[1]; read-out: MID a, average sensitivity of all cell line (GI50-MID)
  GI50: 3.67 µM
Ovarian Cancer subpanel
  MID b, average sensitivity of all cell line of particular subpanel: 3.88 µM
  Selectivity, ratio MID a: MID b: 0.95
K-562; Homo sapiens, K562, 48 h
  GI50: 3.04 µM
K-562; K-562, single dose 10 µM
  Percentage Cell Growth: 4.57%
MDA-MB-435; Homo sapiens, MDA-MB-435, 48 h
  GI50: 8.65 µM
MDA-MB-435; MDA-MB-435, single dose 10 µM
  Percentage Cell Growth: −4.44%
BT-549; BT-549, single dose 10 µM
  Percentage Cell Growth: −21.60%
BT-549; Homo sapiens, BT-549, 48 h
  GI50: 3.99 µM
LOX IMVI; Homo sapiens, 48 h
  GI50: 1.77 µM
LOX IMVI; single dose 10 µM
  Percentage Cell Growth: −72.80%
MDA-MB-468; Homo sapiens, MDA-MB-468, 48 h
  GI50: 1.97 µM
MDA-MB-468
  GI50: 3.2 µM
MDA-MB-468; single dose 10 µM
  Percentage Cell Growth: −56.03%
SNB-75; Homo sapiens, SNB-75, 48 h
  GI50: 2.74 µM
SNB-75; SNB-75, single dose 10 µM
  Percentage Cell Growth: −39.09%
M14; Homo sapiens, M14, 48 h
  GI50: 6.05 µM
M14; M14, single dose 10 µM
  Percentage Cell Growth: 8.80%
MOLT-4
  GI50: 3.43 µM
MOLT-4; [2]
  activity at 10 µM: 1.86%
UACC-62; Homo sapiens, UACC-62, 48 h
  GI50: 4.2 µM
UACC-62; UACC-62, single dose 10 µM
  Percentage Cell Growth: −23.23%
NCI-H522; Homo sapiens, NCI-H522, 48 h
  GI50: 3.13 µM
NCI-H522; NCI-H522, single dose 10 µM
  Percentage Cell Growth: −53.76%
OVCAR-4
  GI50: 3.54 µM
NCI-H23; Homo sapiens, NCI-H23, 48 h
  GI50: 2.26 µM
NCI-H23; NCI-H23, single dose 10 µM
  Percentage Cell Growth: −27.08%
CAKI-1; CAKI-1, single dose 10 µM
  Percentage Cell Growth: −64.30%
CAKI-1; Homo sapiens, CAKI-1, 48 h
  GI50: 1.98 µM
SN12C; Homo sapiens, 48 h
  GI50: 3 µM
SN12C; single dose 10 µM
  Percentage Cell Growth: −45.76%
NCI-H460
  GI50: 2.12 µM
NCI-H460; [2]
  activity at 10 µM: -37.5%
OVCAR-3; Homo sapiens, OVCAR-3, 48 h
  GI50: 2.07 µM
OVCAR-3; OVCAR-3, single dose 10 µM
  Percentage Cell Growth: −46.59%
T-47D; Homo sapiens, T47D, 48 h
  GI50: 4.55 µM
T-47D; T-47D, single dose 10 µM
  Percentage Cell Growth: −24.75%
SF-539; Homo sapiens, SF-539, 48 h
  GI50: 1.78 µM
SF-539; SF-539, single dose 10 µM
  Percentage Cell Growth: −70.46%
MCF7
  GI50: 2.91 µM
MCF7; [2]
  activity at 10 µM: -12.5%
RPMI-8226
  GI50: 3.53 µM
RPMI-8226; [2]
  activity at 10 µM: -19.8%
OVCAR-5; Homo sapiens, OVCAR-5, 48 h
  GI50: 3.78 µM
OVCAR-5; OVCAR-5, single dose 10 µM
  Percentage Cell Growth: −21.57%
A549/ATCC; A549/ATCC, single dose 10 µM
  Percentage Cell Growth: −69.33%
A549/ATCC; Homo sapiens, A549, 48 h
  GI50: 2.11 µM
SF-268; Homo sapiens, SF-268, 48 h
  GI50: 4.34 µM
SF-268; SF-268, single dose 10 µM
  Percentage Cell Growth: 4.41%
786-0; 786-0, single dose 10 µM
  Percentage Cell Growth: −72.16%
786-0; Homo sapiens, 786-0, 48 h
  GI50: 2.03 µM
PC-3; Homo sapiens, PC-3, 48 h
  GI50: 2.83 µM
PC-3; PC-3, single dose 10 µM
  Percentage Cell Growth: −24.47%
OVCAR-8; Homo sapiens, OVCAR-8, 48 h
  GI50: 3.12 µM
OVCAR-8; OVCAR-8, single dose 10 µM
  Percentage Cell Growth: −64.82%
HS 578T; HS 578T, single dose 10 µM
  Percentage Cell Growth: −1.70%
HS 578T; Homo sapiens, Hs-578T, 48 h
  GI50: 5.74 µM
HL-60(TB)
  GI50: 3.59 µM
HL-60(TB); [2]
  activity at 10 µM: 1.17%
SK-MEL-28; Homo sapiens, SK-MEL-28, 48 h
  GI50: 1.09 µM
SK-MEL-28; SK-MEL-28, single dose 10 µM
  Percentage Cell Growth: 0.38%
